PubChem BioAssay (NCI)
Where “and” joins values, the source holds several entries; their conditions need not be identical. Equal values may be shown once.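 Step 1: Grow cells in 96-well plates. Step 2: Expose to compound for 48 hours at 5 concentrations. Step 3: Interpolate endpoints linearly; if unreached, use highest concentration. Here, GI50 denotes the concentration required for 50% inhibition of growth. TGI denotes the concentration required for complete inhibition of growth.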

Experiments:
Test in all cases: NCI-60 cell line screen, 48 h
NCI/ADR-RES ovarian = tested on: NCI/ADR-RES ovarian
T-47D breast = tested on: T-47D breast
MDA-MB-231 breast = tested on: MDA-MB-231 breast

Row | Structure (SMILES) | GI50 (NCI/ADR-RES ovarian) | TGI (NCI/ADR-RES ovarian) [µM] | GI50 (T-47D breast) [µM] | TGI (T-47D breast) [µM] | GI50 (MDA-MB-231 breast) [µM] | TGI (MDA-MB-231 breast) [µM]
1 | Nc1nccc(C#Cc2cncnc2Nc2ccc(OCc3cccc(F)c3)c(Cl)c2)n1 | 6.6 µM | > 25 | 3.1 | 8.03 | 5.56 | 13.1
2 | C[C@@H](Oc1cc(-n2cnc3ccc(OCC4CCN(C)CC4)cc32)sc1C(N)=O)c1ccccc1C(F)(F)F | 0.477 µM | 3.87 | 2.69 | 6.03 | 0.144 | 1.98
3 | O=S(=O)(Nc1ccc2ccc3cccc4ccc1c2c34)c1ccccc1 | – | > 100 | – | > 100 | – | > 100
4 | CN(C)c1ccc(N=C(C#N)c2nc(N)nc(N3CCOCC3)n2)cc1 | 27.1 µM | 62.8 | > 100 | > 100 | 20.7 | 50.5
5 | O=C1/C(=C\c2ccccc2)CN(C(=O)c2ccccc2F)C/C1=C\c1ccccc1 | 3.3 µM | 19.4 | 2.57 | 8.78 | 2 | 4.06
6 | CCOC(=O)/C(=C/c1c(-c2ccccc2)[nH]c2ccccc12)C(=O)c1ccc(Cl)cc1 | 2.69 µM | > 100 | 2.27 | 8.24 | 4.74 | > 100
7 | COc1ccc2c(c1)C(=O)/C(=C/c1ccc(OCC(=O)c3ccc(Cl)cc3)cc1)O2 | 16.3 µM | 41.8 | 10.5 | 35.7 | 17 | 89.7
8 | COc1cccc(C2C3=C(COC3=O)N(CCO)c3cc4c(cc32)CCC4)c1 (configuration not stated) | 0.0556 µM | 0.23 | 0.0832 | 36.6 | 0.142 | 1.07
9 | Cc1ccc2c(c1)/C(=N\N=C/c1cn(C(C)C)c3ccccc13)C(=O)N2 | 73 µM | > 100 | 0.953 | > 100 | 1.25 | 5.83
10 | C/C(=N\NC(=S)Nc1ccccc1)c1ccccn1 | 0.0469 µM | 4.58 | 0.0168 | 6.41 | 0.0309 | 2.61
11 | NCCCNCCCNc1nc2ccccc2c2[nH]c3ccccc3c12 | 0.645 µM and 0.621 µM | > 100 | 0.334 | 2.69 | 0.142 | 1.56
12 | CCN1C(=O)N(CC)C2C1NN=c1s/c(=C\c3ccc([N+](=O)[O-])cc3)c(=O)n12 (configuration not stated) | 0.396 µM | > 45.2 | 0.575 | > 100 | 1.42 | > 44.2
13 | Cn1cc(-c2csc(-c3cn(C)c4ncccc34)n2)c2ccccc21 | 0.135 µM | 3.47 | – | – | 2.82 | 37.8
14 | COc1cc2c(cc1OCCCN1CCN(CCCOc3cc4c(cc3OC)C(=O)C3CCC[C@H]3C=N4)CC1)N=C[C@@H]1CCCC1C2=O (some centres not stated) | > 100 µM | > 100 | 15 | > 100 | 8.44 | > 26.6
15 | c1ccc(COc2ccc(Nc3ncnc4ccc(-c5ccco5)cc34)cc2)cc1 | 7.97 µM | > 25 | 4.09 | 16.8 | 5.49 | 13.7
16 | Cn1cccc1C1CC(=O)N(CCC[Se]C#N)C1=O (configuration not stated) | 2.69 µM | 7.85 | 2.78 | 12.8 | – | –
17 | CCN(CC)c1ccc(/C=C/C2=[N+](C)c3ccccc3C2(C)C)cc1 | 13.9 µM | > 100 | 0.205 | 13.8 | 0.701 | 6.48
18 | Cc1nc(N=C(N)N)nc2ccc3ccccc3c12 | 11.4 µM | 36 | 1.12 | 7.24 | 1.25 | 3.2
19 | Oc1ccc(-c2nc(-c3ccc(F)cc3)c(-c3ccncc3)[nH]2)cc1 | 35.6 µM | > 100 | 8.75 | 63 | 11.2 | > 100
20 | COc1cc(-c2cn(-c3ccc(Cl)cc3)c(=O)n2-c2ccccc2)cc(OC)c1OC | > 92.9 µM | > 100 | 21.7 | > 100 | 32.9 | > 100
21 | OCCC#Cc1ccccc1C#Cc1ccccc1 | 17.9 µM | 53.6 | 39.3 | > 100 | 3.41 | 16.1
22 | COc1cc2nc(-c3ccc(Cl)cc3)cc(OCCCN3CCC(O)CC3)c2cc1OC | 0.925 µM | 14.8 | 2.26 | 12 | 0.665 | 3.52
23 | Cn1cc(-c2ccc3c(c2)ncn3-c2ccc(CC(=O)Nc3cc(C(C)(C)C)on3)cc2)cn1 | 2.23 µM | > 35.1 | 0.683 | 25.5 | 1.23 | 3.6
24 | C/C=C(\C)C(=O)O[C@@H]1C=CC(=O)O[C@H]1COC(=O)[C@H](C)O | 14.6 µM | 56.8 | 4.64 | 25.6 | 13.7 | 29.1
